US20260317319A1, “NOVEL ERGOLINES AND METHODS OF TREATING MOOD DISORDERS” (Gilgamesh Pharma Inc., priority 2023, published 2026)
pEC50: −log10 of the molar value. Where two headings read alike, the source gives them in different places.

What was measured:
[1] = target: T1, 5-HT1B receptor (Homo sapiens, UniProt P28222); experiment: cAMP accumulation functional assay at 5-HT1B; type: cell-based; conditions: for Emax: read-out: 5-HT1B % Act @ Max Dose
T1 construct: expressed in transfected cells
Procedure, shortened: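 Stably transfected human 5-HT1B cells were incubated 60 min at room temperature, after which detection reagent was applied for another 60 min at RT. The read-out was cAMP accumulation, used as a measure of agonist activity.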

[2] = target: T2, 5-HT2B receptor (Homo sapiens, UniProt P41595); experiment: cell-based; type: cell-based
T2 construct: expressed in transfected cells; host or cells: HEK293, stably transfected
Procedure, shortened: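 FLIPR Tetra fluorescence read-out of calcium flux after compound addition. Receptor-expressing stable lines were used (HEK293 for 2A/2B; CHO with Gα15 for 1A), dye-loaded with Fluo-4 Direct and 2.5 mM final probenecid, 50 min at 37 °C.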

[3] = in vitro; type: in vitro ADME, rat
Description: RLM Stability Pooled RLM from male Sprague-Dawley rats (Xenotech R1000) were used.

[4] = target: T3, 5-HT2A receptor (Homo sapiens, UniProt P28223); experiment: cell-based; type: cell-based; conditions: for pEC50: PathHunter, read-out: 5-HT2A Arrestin EC50; for Emax: read-out: 5-HT2A Arrestin % Act @ Max Dose
Procedure, shortened: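 Agonist activity expressed as percent of maximal control ligand signal after vehicle subtraction, from chemiluminescence (RLU). Cells carry ProLink-tagged 5-HT2A plus β-arrestin fused to β-gal deletion mutant; ligand-driven arrestin binding restores β-galactosidase activity (PathHunter). Cells pre-incubated at 37° C.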

[5] = in vitro; type: in vitro ADME, mouse
Description: MLM Stability Pooled MLM from male CD-1 mice (BIOIVT M00501) were used.

[6] = target: T3, 5-HT2A receptor; experiment: cell-based; type: cell-based; set-up: expressed in transfected cells; host or cells: HEK293, stably transfected
Procedure, shortened: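 Agonism measured as calcium flux on FLIPR Tetra. Receptor lines: HEK293 for 5-HT2A and 5-HT2B, CHO with Gα15 for 5-HT1A; dye loading with Fluo-4 Direct and probenecid (2.5 mM final) ran 50 min at 37 °C before compound addition and signal reading.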

[7] = in vitro; type: in vitro ADME, human
[8] = target: T4, 5-HT1A receptor (Homo sapiens, UniProt P08908); experiment: cell-based; conditions: for Emax: CHO, read-out: 5-HT1A % Act @ Max Dose
T4 construct: expressed in transfected cells; host or cells: CHO cells, stably transfected
T4 sequence (P08908 1-422): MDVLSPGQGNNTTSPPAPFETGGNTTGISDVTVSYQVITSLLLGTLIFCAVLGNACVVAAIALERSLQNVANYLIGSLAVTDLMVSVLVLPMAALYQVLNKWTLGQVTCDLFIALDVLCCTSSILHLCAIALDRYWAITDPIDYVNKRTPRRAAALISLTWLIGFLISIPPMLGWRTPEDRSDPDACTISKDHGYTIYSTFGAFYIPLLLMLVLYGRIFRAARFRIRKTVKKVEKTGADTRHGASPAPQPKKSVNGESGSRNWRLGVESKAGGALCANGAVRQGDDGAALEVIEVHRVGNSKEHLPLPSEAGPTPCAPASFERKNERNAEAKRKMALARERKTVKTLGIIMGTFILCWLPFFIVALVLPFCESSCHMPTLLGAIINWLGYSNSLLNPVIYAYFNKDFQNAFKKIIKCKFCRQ
Procedure, shortened: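 Receptor agonism was assessed as intracellular calcium mobilization in stably transfected cells, with CHO cells additionally carrying Gα15 for the 5-HT1A readout. Calcium was monitored with Fluo-4 Direct dye.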

[9] = agonist, cAMP accumulation, max dose
[10] = HEK293, agonist, Ca2+ flux, HEK293, max dose, read-out: 5-HT2B % Act @ Max Dose
[11] = agonist, beta-arrestin recruitment
[12] = agonist, beta-arrestin recruitment, max dose
[13] = HEK293, agonist, Ca2+ flux, HEK293, max dose, read-out: 5-HT2A % Act @ Max Dose
[14] = agonist, Ca2+ flux, CHO cells with Gα15, max dose
[15] = RLM (male Sprague-Dawley) 0.50 mg/mL, NADPH 1 mM, 1 μM compound, pH 7.4, 37° C., 60 min
[16] = MLM (male CD-1) 0.50 mg/mL, NADPH 1 mM, 1 μM compound, pH 7.4, 37° C., 60 min
[17] = HLM 0.50 mg/mL, NADPH 1 mM, 1 μM compound, pH 7.4, 37° C., 60 min

T3 sequence (P28223 whole entry, the tested form may be a part): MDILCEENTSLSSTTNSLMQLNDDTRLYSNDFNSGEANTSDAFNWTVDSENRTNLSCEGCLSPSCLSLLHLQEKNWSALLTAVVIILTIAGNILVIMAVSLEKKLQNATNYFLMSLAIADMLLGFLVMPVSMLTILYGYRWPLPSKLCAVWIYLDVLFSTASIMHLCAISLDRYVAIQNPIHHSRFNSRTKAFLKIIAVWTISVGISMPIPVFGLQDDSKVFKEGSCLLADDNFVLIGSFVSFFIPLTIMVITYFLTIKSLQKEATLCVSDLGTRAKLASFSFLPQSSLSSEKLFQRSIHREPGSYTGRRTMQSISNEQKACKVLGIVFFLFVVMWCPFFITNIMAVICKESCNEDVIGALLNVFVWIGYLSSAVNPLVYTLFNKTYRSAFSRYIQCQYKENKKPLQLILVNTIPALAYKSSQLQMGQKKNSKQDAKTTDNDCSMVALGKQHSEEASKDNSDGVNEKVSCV
T1 sequence (P28222 whole entry): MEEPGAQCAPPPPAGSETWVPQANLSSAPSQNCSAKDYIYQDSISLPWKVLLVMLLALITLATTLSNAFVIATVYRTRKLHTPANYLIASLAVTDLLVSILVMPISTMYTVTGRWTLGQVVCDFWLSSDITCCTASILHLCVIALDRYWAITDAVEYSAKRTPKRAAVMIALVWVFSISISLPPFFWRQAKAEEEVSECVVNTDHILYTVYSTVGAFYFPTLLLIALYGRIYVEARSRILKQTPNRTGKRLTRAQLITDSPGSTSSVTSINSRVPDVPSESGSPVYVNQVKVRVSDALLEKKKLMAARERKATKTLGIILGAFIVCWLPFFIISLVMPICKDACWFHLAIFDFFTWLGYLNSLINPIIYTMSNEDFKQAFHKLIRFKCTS
T2 sequence (P41595 whole entry): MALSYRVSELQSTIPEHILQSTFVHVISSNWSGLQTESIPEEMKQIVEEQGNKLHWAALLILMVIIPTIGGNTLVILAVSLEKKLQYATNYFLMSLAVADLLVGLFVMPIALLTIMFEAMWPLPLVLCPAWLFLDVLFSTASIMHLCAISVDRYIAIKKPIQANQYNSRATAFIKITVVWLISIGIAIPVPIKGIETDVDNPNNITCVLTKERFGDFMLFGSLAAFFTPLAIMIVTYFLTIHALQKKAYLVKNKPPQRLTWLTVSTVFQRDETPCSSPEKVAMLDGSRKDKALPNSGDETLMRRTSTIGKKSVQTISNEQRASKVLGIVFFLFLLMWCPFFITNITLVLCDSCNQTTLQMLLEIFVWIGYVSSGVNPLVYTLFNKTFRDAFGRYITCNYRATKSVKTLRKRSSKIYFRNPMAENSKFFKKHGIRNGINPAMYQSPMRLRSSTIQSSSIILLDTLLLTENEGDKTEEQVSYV

Structure (SMILES) | Emax [1, 9] | Emax [2, 10] | pEC50 [4, 11] | Emax [4, 12] | Emax [6, 13] | Emax [8, 14] | stability in RLM [3] | Intrinsic clearance (Clint) [3, 15] | half-life (t1/2) [3, 15] | stability in MLM [5] | Intrinsic clearance (Clint) [5, 16] | half-life (t1/2) [5, 16] | stability in HLM [7] | Intrinsic clearance (Clint) [7, 17] | half-life (t1/2) [7, 17] | other results
CCN(CC)C(=O)[C@@H]1C=C2c3cccc4[nH]cc(c34)C[C@H]2N(Cc2ccccc2)C1 [Compound 82, (6aR,9R)-7-benzyl-N,N-diethyl-4,6,6a,7,8,9-hexahydroindolo[4,3-fg]quinoline-9-carboxamide] | 62.8% | 13.3% | 8.76 | 26.1% | 61.4% | 27.8% |  |  |  |  |  |  |  |  |  | pEC50 ([1]; agonist, cAMP accumulation): 6.00; pEC50 ([2]; agonist, Ca2+ flux, HEK293): < 5.00; microsomal CLint ([3]; rat, microsomes, RLM (male Sprague-Dawley) 0.50 mg/mL, NADPH 1 mM, 1 μM compound, pH 7.4, 37° C., 60 min, read-out: Intrinsic clearance (Clint)): 190 µL/min/mg; half-life ([3]; rat, microsomes, RLM (male Sprague-Dawley) 0.50 mg/mL, NADPH 1 mM, 1 μM compound, pH 7.4, 37° C., 60 min, read-out: half-life (t1/2)): 7.3 min; microsomal CLint ([5]; mouse, microsomes, MLM (male CD-1) 0.50 mg/mL, NADPH 1 mM, 1 μM compound, pH 7.4, 37° C., 60 min, read-out: Intrinsic clearance (Clint)): 553 µL/min/mg; half-life ([5]; mouse, microsomes, MLM (male CD-1) 0.50 mg/mL, NADPH 1 mM, 1 μM compound, pH 7.4, 37° C., 60 min, read-out: half-life (t1/2)): 2.5 min; pEC50 ([6]; agonist, Ca2+ flux, HEK293): 6.38; microsomal CLint ([7]; human, microsomes, HLM 0.50 mg/mL, NADPH 1 mM, 1 μM compound, pH 7.4, 37° C., 60 min, read-out: Intrinsic clearance (Clint)): 106 µL/min/mg; half-life ([7]; human, microsomes, HLM 0.50 mg/mL, NADPH 1 mM, 1 μM compound, pH 7.4, 37° C., 60 min, read-out: half-life (t1/2)): 13 min; pEC50 ([8]; agonist, Ca2+ flux, CHO cells with Gα15): 5.47
CCN(CC)C(=O)[C@@H]1C=C2c3cccc4[nH]cc(c34)C[C@H]2N(C)C1 [LSD, lysergic acid diethylamide, reference compound] |  |  |  |  |  |  |  |  |  |  |  |  |  |  |  | Emax [1]: 98%; Emax ([2]; HEK293, read-out: 5-HT2B % Act @ Max Dose): 19.3%; half-life (t1/2) ([3]; rat, microsomes, pH 7.4): 60.2 min; 5-HT2A arrestin agonist class [4]: partial agonists; Emax [4]: 52.6%; half-life (t1/2) ([5]; mouse, microsomes, pH 7.4): 31.3 min; Emax ([6]; HEK293, read-out: 5-HT2A % Act @ Max Dose): 108%; half-life (t1/2) ([7]; human, microsomes, pH 7.4): 71.6 min; Emax [8]: 91.4%
CCN(CC)C(=O)[C@@H]1C=C2c3cccc4[nH]cc(c34)C[C@H]2N(Cc2ccccc2OC)C1 [Compound 10, (6aR,9R)—N,N-diethyl-7-(2-methoxybenzyl)-4,6,6a,7,8,9-hexahydroindolo[4,3-fg]quinoline-9-carboxamide] | 87.3% | 2% |  | 47.1% | 49.4% | 53% | much lower stability (higher clearance) | 407.4 µL/min/mg | 3.4 min | much lower stability (higher clearance) | 1396.8 µL/min/mg | 1 min | much lower stability (higher clearance) | 190.3 µL/min/mg | 7.3 min | 
CCCN1C[C@H](C(=O)NC(CC)CC)C=C2c3cccc4[nH]cc(c34)C[C@H]21 [Compound 6, (6aR,9R)—N-(pentan-3-yl)-7-propyl-4,6,6a,7,8,9-hexahydroindolo[4,3-fg]quinoline-9-carboxamide] | 94.6% | 92.9% |  | 103% | 94.6% | 102% | much lower stability (higher clearance) |  | 1.655 min | much lower stability (higher clearance) |  | 0.6 min | much lower stability (higher clearance) |  | 1.607 min | selectivity for 5-HT2A over 5-HT1B ([1]; functional, compared to the N-methyl prototype LSD): greater selectivity for 5-HT2A over 5-HT1B; 5-HT2A arrestin agonist class ([4]; beta-arrestin recruitment): full agonists
CCN(CC)C(=O)[C@@H]1C=C2c3cccc4[nH]cc(c34)C[C@H]2N(Cc2cccc(OC)c2)C1 [Compound 18, (6aR,9R)—N,N-diethyl-7-(3-methoxybenzyl)-4,6,6a,7,8,9-hexahydroindolo[4,3-fg]quinoline-9-carboxamide] | 83.3% | 4.69% | 8.37 | 89.6% | 61.1% | 28.9% |  | 262.8 µL/min/mg | 5.3 min |  | 523.7 µL/min/mg | 2.6 min |  | 101.7 µL/min/mg | 13.6 min | 
